Results: PubChem BioAssay (NCI)
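Method: 48-hour compound exposure of cells in 96-well plates, five concentrations, linear interpolation of endpoints. TGI marks complete inhibition of growth.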

Tests used:
Experiment in all cases: NCI tumour cell line growth inhibition, 48 h
M19-MEL melanoma = system: M19-MEL melanoma
DMS 114 small cell lung = system: DMS 114 small cell lung
LXFL 529 NSCLC = system: LXFL 529 NSCLC
DLD-1 colon = system: DLD-1 colon
XF 498 CNS = system: XF 498 CNS
HOP-18 NSCLC = system: HOP-18 NSCLC
DMS 273 small cell lung = system: DMS 273 small cell lung
SNB-78 CNS = system: SNB-78 CNS

Structure (SMILES)	TGI (M19-MEL melanoma) [µM]	TGI (DMS 114 small cell lung) [µM]	TGI (LXFL 529 NSCLC) [µM]	TGI (DLD-1 colon) [µM]	TGI (XF 498 CNS) [µM]	TGI (HOP-18 NSCLC) [µM]	TGI (DMS 273 small cell lung) [µM]	TGI (SNB-78 CNS) [µM]
COc1ccc(/C=C2/C(=O)N(C(=O)c3ccccc3O)N=C2C)cc1	> 100	2.25	> 100	> 100	> 100	–	–	–
O=c1cc(-c2ccccc2)[nH]c2cc(F)cc(F)c12	> 100	93.2	> 100	> 100	–	> 100	> 100	–
CC1(C)OC(=S)N(c2ccccc2)C12C=Cc1cc3ccccc3nc1S2 (stereo not given)	> 100	> 100	> 100	97	> 100	–	> 100	–
CC(Oc1ccc(Oc2cnc3ccc(Cl)cc3n2)cc1)C(=O)O (stereo not given)	> 100	> 100	> 100	> 100	> 100	> 100	> 100	> 100
